A short description of the data set: Human HepG2 cell viability assay in 384 well format. In kind it is toxicity, cell-based. Further details: dose 125 nL, time 70.5 hour; concentration not given beside the values. The conditions noted are these: HepG2 cells, read-out: Inhibition.
On to `CCOc1ccc(CC(CNC(=O)c2ccc(C)s2)C(N)=O)cc1` (stereo not given), for which the cytotoxicity at 70.5 h was 4.65%.

`Cc1ncc2c(n1)CN(Cc1cn3ccsc3n1)CC2`: the cytotoxicity at 70.5 h was -0.474%.

`CCC(=O)NCC(=O)Nc1c(C)cnn1Cc1cc(F)ccc1F`: the cytotoxicity at 70.5 h was -5.16%.

Consider `O=C(COc1ccccc1C(F)(F)F)NCCNC(=O)c1ccccc1`, for which the cytotoxicity at 70.5 h worked out at 12.9%.

For the compound `CCn1nc2c(cc1=O)CN(Cc1nc(CCOC)no1)CC2`, the cytotoxicity at 70.5 h is -16%.

As to `O=C(Nc1ccc(N2CCCCC2)cn1)C1CCCN1C(=O)C1CC1` (stereo not given), the cytotoxicity at 70.5 h is -4.38%.

With `Cc1cc(C)c(CNC(=O)CCC2CCCO2)c(=O)[nH]1` (stereo not given), the cytotoxicity at 70.5 h is -6.31%.

As for `O=C(CN1CCCC(Cn2cncn2)C1)NCCc1cccs1` (stereo not given), the cytotoxicity at 70.5 h was found to be 0.827%.

Consider `Cn1cc(CC(=O)N2CCOC(c3nc(C(C)(C)C)n[nH]3)C2)cn1` (stereo not given), for which the cytotoxicity at 70.5 h is -1.3%.

With `Nc1nnc(CCCNC(=O)c2ccc(C3CCCNC3)cc2)s1` (stereo not given), the cytotoxicity at 70.5 h was found to be 8.02%.

As to `Cc1ccc(-c2noc(CN3CCC(c4ccn[nH]4)CC3)n2)cc1`, the cytotoxicity at 70.5 h was determined as 0.504%.

With `Cc1nc(O)cc(CCNc2nccc(CCC(F)(F)F)n2)n1`, the cytotoxicity at 70.5 h is -8.71%.

For `O=C(C[S+]([O-])Cc1ccccc1F)N1CCc2sccc2C1` (stereo not given), the cytotoxicity at 70.5 h is -7.21%.

Turning to `CCC1=N[C@@]2(CC[C@@H]3CN(Cc4ccccc4C)C[C@@H]32)C(=O)N1`, the cytotoxicity at 70.5 h was -4.43%.

Turning to `Cc1cc(C(=O)N[C@H]2CC[C@@]3(CCC(=O)N3)CC2)no1`, the cytotoxicity at 70.5 h was -6.09%.

Regarding `Cc1nn(C)c2c(=O)n(CC(=O)NC3CCCCC3)ccc12`, the cytotoxicity at 70.5 h was -1.28%.

For the compound `CCOc1cc(CNC(=O)C(C#N)c2nc(C)cs2)ccc1OC(F)F` (stereo not given), the cytotoxicity at 70.5 h was -0.465%.

Consider `CCC1CCCN(C(=O)NCc2cccnc2-n2cccn2)C1` (stereo not given), for which the cytotoxicity at 70.5 h was -4.16%.

On to `Cc1ccc(N2CCCN(C(=O)c3cc(Cl)c[nH]3)CC2)nn1`, for which the cytotoxicity at 70.5 h was -8.66%.

`O=C(c1cncs1)N1CCOCC(Cc2ccccn2)C1` (stereo not given): the cytotoxicity at 70.5 h was -2.59%.

`CN(C)C(=O)CN1CCC2(CCN(CC3CC3)CC2)C1=O`: the cytotoxicity at 70.5 h was found to be 9.87%.

As to `O=C(O)c1cc(-c2ccoc2)cc(S(=O)(=O)N2CCSCC2)c1`, the cytotoxicity at 70.5 h is -4.7%.

Turning to `O=C(NCCCNc1ccccc1)c1scnc1Cl`, the cytotoxicity at 70.5 h is 4.41%.

`O=C(c1ccno1)N1CCO[C@]2(CCC[C@@H]2COCc2ccncc2)C1`: the cytotoxicity at 70.5 h is -2.51%.

Turning to `O=C(Nc1cnn(CC(F)F)c1)c1cccc(-n2cnnn2)c1`, the cytotoxicity at 70.5 h is -1.49%.

As to `NC(=O)CN1CCc2c(Br)ccc(F)c2C1`, the cytotoxicity at 70.5 h stood at 3.38%.

Turning to `COCC1N(C(=O)c2ccc3c(c2)OCCCO3)[C@H]2CC[C@]1(O)CC2` (stereo not given in full), the cytotoxicity at 70.5 h was -6.94%.

Turning to `COc1cccc(OC)c1C(=O)NCC(c1cccn1C)N1CCCC1` (stereo not given), the cytotoxicity at 70.5 h is -5.44%.

`CC(C)(C)OC(=O)NC(C)(C)c1noc(CSc2ccccn2)n1`: the cytotoxicity at 70.5 h was -1.21%.

`Cc1cc(C(=O)N2C[C@@H]3[C@@H](C2)OCC(=O)N3CC2CC2)no1`: the cytotoxicity at 70.5 h was -13.6%.

Take `COC(C)Cc1nc(-c2cnn3c(C)cc(C)nc23)no1` (stereo not given): the cytotoxicity at 70.5 h was -97.5%.

Turning to `Cc1cnc(C(=O)N2CCCC(c3c(C)c(=O)nc4n3CCC4)C2)cn1` (stereo not given), the cytotoxicity at 70.5 h is -7.55%.

As to `COCCN1CCC(Cc2cncc(-c3ccc(C(=O)O)cc3)n2)CC1`, the cytotoxicity at 70.5 h stood at 8.54%.

With `CCCc1ccc(CN2CCN(C(=O)N(C)C)[C@@H]3CS(=O)(=O)C[C@@H]32)o1`, the cytotoxicity at 70.5 h is -10.7%.

Turning to `O=C(c1ccoc1)N1CC[C@H]2C[C@@H](c3nnc(C4CC4)o3)O[C@@H]2C1`, the cytotoxicity at 70.5 h was -12%.

With `Cc1ccc(S(=O)(=O)NCC(O)c2ccoc2)s1` (stereo not given), the cytotoxicity at 70.5 h was -12.5%.

For the compound `CCC(CC)CN1CCC(n2cc(C3CCCC3)nn2)CC1`, the cytotoxicity at 70.5 h was -3.87%.

As for `O=C(Cc1ccsc1)NCC1OCCc2cn(CC3CC3)nc21` (stereo not given), the cytotoxicity at 70.5 h was -2.21%.

As for `CC1(C(=O)NCCN2CCCCC2)CCCN1C(=O)c1ccccc1` (stereo not given), the cytotoxicity at 70.5 h is -3.21%.

Regarding `CC(=O)c1cccc(NC(=O)CCn2nc(-c3cccs3)oc2=O)c1`, the cytotoxicity at 70.5 h was -18.2%.

For `COc1ccc(C)cc1CN1CCN(Cc2nccn2C)CC1`, the cytotoxicity at 70.5 h was determined as 1.89%.

Turning to `Cc1cnn(CC2CCCCN2Cc2ncc(C(C)(C)C)o2)c1` (stereo not given), the cytotoxicity at 70.5 h is -7.03%.

As for `Cc1nnc(C2CCN(C(=O)c3ccsc3)CC2)s1`, the cytotoxicity at 70.5 h is -5.71%.

Regarding `CO[C@H]1CN(CC2CCOCC2)[C@@H]2CCCO[C@H]12`, the cytotoxicity at 70.5 h is -7.16%.

`CC(O)CNCc1c[nH]nc1-c1cc2ccccc2o1` (stereo not given): the cytotoxicity at 70.5 h came out at 17.5%.

For `CC(C)c1nc(CN2CCCN(Cc3nccn3C)CC2)no1`, the cytotoxicity at 70.5 h was determined as 18.1%.

Turning to `COc1ccccc1CC(=O)N1CCCC(CNS(C)(=O)=O)C1` (stereo not given), the cytotoxicity at 70.5 h is -9.26%.

For `CC(C)n1cc(CN2CCCN(C(=O)CC3CCCO3)CC2)cn1` (stereo not given), the cytotoxicity at 70.5 h was -4.54%.

Consider `COc1ccccc1Oc1ncccc1CNC(=O)C(C)CN` (stereo not given), for which the cytotoxicity at 70.5 h is -9.25%.

For the compound `O=C(Cc1cnc(-c2c(Cl)cccc2Cl)s1)N1CCOCC1`, the cytotoxicity at 70.5 h is -13.9%.

`c1ccc(-n2ccc(CN3CCCC3Cn3cccn3)n2)cc1` (stereo not given): the cytotoxicity at 70.5 h is -13.6%.

`CCN(Cc1ccc2c(c1)OCO2)C(=O)c1cccnc1O`: the cytotoxicity at 70.5 h was -5.82%.

As to `Cn1cnnc1C1CCCN(C(=O)CCc2ccc3c(c2)OCO3)C1` (stereo not given), the cytotoxicity at 70.5 h stood at 15.2%.

On to `CC1(C)CN(C(=O)c2ccc3nncn3c2)CCS1`, for which the cytotoxicity at 70.5 h was -5.72%.

Consider `N#Cc1cc(NS(=O)(=O)CC2CCCCO2)ccc1F` (stereo not given), for which the cytotoxicity at 70.5 h is -0.517%.

As for `Cc1nc2ccccc2c(=O)n1CCC(=O)N1CCSCC1`, the cytotoxicity at 70.5 h is -4.52%.

Take `Cc1cccc(CS(=O)(=O)NCc2nn(C)c3c2CCCC3)c1`: the cytotoxicity at 70.5 h was -2.52%.

Regarding `Cc1ccc(S(=O)(=O)NCCNC(=O)c2ccoc2)cc1C`, the cytotoxicity at 70.5 h is -7.77%.

Take `NC(=O)CN1C(=O)CO[C@H]2CN(Cc3ccccc3)C[C@H]21`: the cytotoxicity at 70.5 h is -0.937%.

As to `COc1ccc(S(=O)(=O)N2CCCC3(CCCN3S(C)(=O)=O)C2)cc1` (stereo not given), the cytotoxicity at 70.5 h came out at 8.26%.

For `CCCS(=O)(=O)N1CCc2c(COCC)cncc2C1`, the cytotoxicity at 70.5 h is -3.03%.

As for `CCc1c(C)nn(CCNC(=O)C2CCCN(C(=O)N(C)C)C2)c1C` (stereo not given), the cytotoxicity at 70.5 h is -10.4%.

Regarding `O=C(C1CC12CCC2)N1CCC(n2cc(-c3ccsc3)nn2)CC1` (stereo not given), the cytotoxicity at 70.5 h was -9.29%.

With `Cc1ccccc1-n1ccnc1S(=O)(=O)Cc1nsc(N(C)C)n1`, the cytotoxicity at 70.5 h was -11%.

Turning to `CCN1CCN(C2CCN(Cc3cc(C)on3)CC2)C1=O`, the cytotoxicity at 70.5 h is 49.1%.

With `N[C@H]1CC[C@@H](n2cc(C(=O)N[C@H]3CCCc4ccccc43)nn2)CC1`, the cytotoxicity at 70.5 h is -10.4%.

As to `COc1ccc(NC(=O)Cn2nc(C)ccc2=O)cc1OC`, the cytotoxicity at 70.5 h worked out at 0.232%.

For the compound `Cc1cnc(N2CCCC3(COCCN(c4nccs4)C3)C2)nc1` (stereo not given), the cytotoxicity at 70.5 h is -8.41%.

Take `CN(c1ncc(S(N)(=O)=O)s1)C1CCC1`: the cytotoxicity at 70.5 h is -9.06%.

`Cc1c(Cl)c(C(F)(F)F)nn1C(C)C(=O)NN1CCN(C)CC1` (stereo not given): the cytotoxicity at 70.5 h is -3.23%.

As to `CCOCC(=O)N1CCC2(CC1)COC(COCc1ccccn1)C2` (stereo not given), the cytotoxicity at 70.5 h was 4.72%.

For the compound `CCN1CCOCC12CCN(C(=O)C1CCCC1)CC2`, the cytotoxicity at 70.5 h was -0.25%.

In the case of `Cc1cccc(CN2CCCC(O)(CNCc3cccc(F)c3)C2=O)c1` (stereo not given), the cytotoxicity at 70.5 h was -5.44%.

For the compound `O=c1[nH]c2nc(N3CCOCC3)ncc2c(=O)n1-c1cccc(F)c1`, the cytotoxicity at 70.5 h was -2.92%.

For `c1ccc2c(c1)CN(c1ncnc3c1CCNC3)CCO2`, the cytotoxicity at 70.5 h is -5.38%.

Take `c1cnn(CCN2CCOC(Cn3cccn3)C2)c1` (stereo not given): the cytotoxicity at 70.5 h is -4.95%.

In the case of `CC(c1cccc(F)c1)N1CCN(Cc2nccn2C)CC1` (stereo not given), the cytotoxicity at 70.5 h was -9.9%.

`CN(C)C(=O)COCC1CN(C2CCC2)Cc2ncn(C)c21` (stereo not given): the cytotoxicity at 70.5 h was determined as 22.5%.

For `CCCn1nc(C(=O)NC2(c3ccc(Cl)cc3)CCCC2)ccc1=O`, the cytotoxicity at 70.5 h is -7.76%.

Consider `COc1cccc(CN(C)Cn2nc(C(C)(C)C)ccc2=O)c1`, for which the cytotoxicity at 70.5 h came to 2.69%.

Turning to `Cc1cccnc1NC(=O)CC1(Cn2cnnn2)CCCCC1`, the cytotoxicity at 70.5 h is -7.45%.

Take `O=C(NCC1CC1)C1CN(C(=O)c2ccnnc2)CC12CCOCC2` (stereo not given): the cytotoxicity at 70.5 h is -2.63%.

Consider `CCCn1cc(C(=O)n2nc(C)cc2C)c(S(=O)(=O)N2CCSCC2)n1`, for which the cytotoxicity at 70.5 h was -7.23%.

In the case of `CC(C)NC(=O)N1CCC2(CC1)CCn1c(C3CC3)cnc12`, the cytotoxicity at 70.5 h is 51.2%.

Turning to `Cc1ccc(CNC(C)c2nnc3n2CCCC3)o1` (stereo not given), the cytotoxicity at 70.5 h is -8.48%.

For `CCC(C)NC(=O)c1nnn(-c2cccc3c2CCN(C)C3)c1C` (stereo not given), the cytotoxicity at 70.5 h came to 2.37%.

In the case of `NC(=O)C1CCCN(S(=O)(=O)c2cnn(-c3ccccc3)c2)C1` (stereo not given), the cytotoxicity at 70.5 h was -1.76%.

With `CN(Cc1ccncc1)Cc1nccn1Cc1ccccc1`, the cytotoxicity at 70.5 h was -5.12%.

Consider `NC(=O)c1cnc(NC2CCN(C(=O)C3CC3)CC2)c(Cl)c1`, for which the cytotoxicity at 70.5 h was -0.537%.

Turning to `OCCN1CCN(Cc2cc(Cl)cc3cccnc23)CC1`, the cytotoxicity at 70.5 h was 4.47%.

Turning to `O=C(NCc1ccccc1Cn1cncn1)C1CCCC1`, the cytotoxicity at 70.5 h is -3.85%.

As for `O=c1ccc(-n2ccnc2)nn1CCNS(=O)(=O)c1ccc(Br)cc1`, the cytotoxicity at 70.5 h was found to be 15.1%.

Turning to `Cc1nc(CN2CCN(S(=O)(=O)N3CCCCC3)CC2)oc1C`, the cytotoxicity at 70.5 h is -4.75%.

`Cc1noc(C)c1C(=O)NCc1cc[nH]n1`: the cytotoxicity at 70.5 h came out at 11.4%.

`CN(C)C(=O)CCCn1ccc(NCc2ccc(C#N)cc2)n1`: the cytotoxicity at 70.5 h is -2.31%.

Turning to `Cc1cncc(C2CCCN(C(=O)c3cn(C)nc3C)C2)n1` (stereo not given), the cytotoxicity at 70.5 h is -3.29%.

Turning to `CC(C(=O)NCCOc1ccccc1)n1cncn1` (stereo not given), the cytotoxicity at 70.5 h is -12.5%.

As for `Cn1cccc1C(=O)NCc1cnc2n1CCN(C(N)=O)CC2`, the cytotoxicity at 70.5 h is -4.35%.

With `COCc1noc(Cn2ccc3ccccc3c2=O)n1`, the cytotoxicity at 70.5 h is -5.61%.

`CN(C)C(=O)N1Cc2ncn(C)c2C(COCC2CCOCC2)C1` (stereo not given): the cytotoxicity at 70.5 h was -11.9%.
